Tests used:
[1] = system: CRAC ion channel (ICRAC current); test: Patch clamp inhibition of ICRAC current in Jurkat cells; type: cell-based, human; conditions: 1 μM compound, n=3
Procedure: In general, a whole cell patch clamp method was used to examine the effects of a compound of the invention on a channel that mediates Icrac. In such experiments, a baseline measurement was established for a patched cell. Then a compound to be tested was perfused (or puffed) to cells in the external solution and the effect of the compound on Icrac was measured. A compound that modulates Icrac (e.g., inhibits) is a compound that is useful in the invention for modulating CRAC ion channel activity.
Jurkat T cells were grown on glass coverslips, transferred to the recording chamber and kept in a standard modified Ringers solution of the following composition: NaCl 145 mM, KCl 2.8 mM, CsCl 10 mM, CaCl2 10 mM, MgCl2 2 mM, glucose 10 mM, HEPES.NaOH 10 mM, pH 7.2.
The external solution contained 10 mM CaNaR, 11.5 mM glucose and the test compound at the concentrations described below.
The standard intracellular pipette solution contained: Cs-glutamate 145 mM, NaCl 8 mM, MgCl2 1 mM, ATP 0.5 mM, GTP 0.3 mM, pH 7.2 adjusted with CsOH. […]
Patch-clamp experiments were performed in the tight-seal whole-cell configuration at 21-25° C. […] Capacitive currents and series resistance were determined and corrected before each voltage ramp using the automatic capacitance compensation of the EPC-9. […]

[2] = system: CRAC ion channel (ICRAC current); test: Patch clamp inhibition of ICRAC current in primary T cells; type: cell-based; conditions: primary human T cells, varying concentrations
Procedure: Membrane currents of individual cells were recorded using the whole-cell configuration of the patch clamp technique with an EPC10 (HEKA Electronik, Lambrecht, Germany). Electrodes (2-5 MD in resistance) were fashioned from borosilicate glass capillary tubes (Sutter Instruments, Novato, Ca). The recordings were done at room temperature.
ICRAC currents were monitored every 2 seconds using a 50 msec protocol, where the voltage was ramped from −100 mV to +100 mV. The membrane potential was held at 0 mV between the test ramps. In a typical experiment the peak inward currents would develop within 50-100 seconds. Once the ICRAC currents were stabilized, the cells were perfused with compounds in the extracellular solution. At the end of an experiment the remaining ICRAC currents were then challenged with a control compound (SKF96365, 10 μM) to ensure that the current could still be inhibited.
The ICRAC current level was determined by measuring the inward current amplitude at −80 mV of the voltage ramp in an off-line analysis using MATLAB. The ICRAC current inhibition for each concentration was calculated using peak amplitude in the beginning of the experiment from the same cell. The IC50 value and Hill coefficient for each compound was estimated by fitting all the individual data points to a single Hill equation. […]

IL-2 = test: Cytokine inhibition in PHA-stimulated primary human PBMCs: IL-2; type: cell-based; conditions: PBMC
Procedure: (§1) Cytokine production was measured using commercially available human ELISA assay kits (from Cell Science, Inc.) following the manufacturers instructions.

IL-4 = test: Cytokine inhibition in PHA-stimulated primary human PBMCs: IL-4; type: cell-based; conditions: PBMC
Procedure: as §1

IL-5 = test: Cytokine inhibition in PHA-stimulated primary human PBMCs: IL-5; type: cell-based; conditions: PBMC
Procedure: as §1

IL-10 = test: Cytokine inhibition in PHA-stimulated primary human PBMCs: IL-10; type: cell-based; conditions: PBMC
Procedure: as §1

IL-13 = test: Cytokine inhibition in PHA-stimulated primary human PBMCs: IL-13; type: cell-based; conditions: PBMC
Procedure: as §1

GM-CSF = test: Cytokine inhibition in PHA-stimulated primary human PBMCs: GM-CSF; type: cell-based; conditions: PBMC
Procedure: as §1

INF-γ = test: Cytokine inhibition in PHA-stimulated primary human PBMCs: INF-γ; type: cell-based; conditions: PBMC
Procedure: as §1

TNF-α = test: Cytokine inhibition in PHA-stimulated primary human PBMCs: TNF-α; type: cell-based; conditions: PBMC
Procedure: as §1

RBL cells = test: Inhibition of degranulation in RBL cells; type: cell-based; conditions: Rattus norvegicus, anti-DNP IgE / anti-IgE, read-out: concentration at which 50% of degranulation is inhibited
Procedure: Procedure: • The day before the assay was performed, RBL cells, that had been grown to confluence in a 96 well plate, were incubated at 37° C. for at least 2 hours. The medium was replaced in each well with 100 μL of fresh medium containing of anti-DNP IgE.
On the following day, the cells were washed once with PRS (2.6 mM glucose and 0.1% BSA) and 160 μL of PRS was added to each well. The test compound was addded to a well in a 20 μL solution at 10× of the desired concentration and incubated for 20 to 40 minutes at 37° C. 20 μL of 10× mouse anti-IgE (10 μL/mL). Maximum degranulation occurred between 15 to 40 minutes after addition of anti-IgE.

IL-2 production [3] = test: IL-2 production upon PMA/ionomycin stimulation in whole blood of dosed cynomolgus monkeys; type: in vivo; conditions: IV 5 mg/kg, 4 hours after dosing
Procedure: (§2) 3 male non-native cynomolgus monkeys were fasted overnight prior to and for four (4) hours following each dose. Each monkey was given a single intravenous dose of the appropriate test compound followed by a 1 mL rinse of saline to flush the catheter. The dose was infused over one hour using calibrated syringe pumps. Following a one week washout, the same three monkeys were given a single oral gavage dose of the appropriate test compound dose formulation followed by a 10 mL flush with tap water. Following a second one week washout, the same three monkeys received a second oral dose of the appropriate test compound dose formulation followed by a 10 mL flush with tap water. Following a third one week washout, the same three monkeys received a third oral dose of the appropriate test compound dose formulation followed by a 10 mL flush with tap water. Prior to and at 1, 2, and 4 hours following each dose (measured from the start of dosing for IV doses), blood samples ([…] for Group 1 and 2 mL/sample for Groups 2 and 3) were drawn into tubes containing sodium heparin and stored at room temperature, and the concentration of the test compounds in each sample was measured. CsA was included as a positive control.

TNF-α production = TNF-α production upon PMA/ionomycin stimulation in whole blood of dosed cynomolgus monkeys; type: in vivo; conditions: IV 5 mg/kg, 4 hours after dosing
Procedure: as §2

IL-2 production [4] = test: Inhibition of IL-2 production in PHA-activated Jurkat cells (ELISA); type: cell-based; conditions: Homo sapiens, PHA 2.5 μg/mL, 20 hours, value bins
Procedure: Jurkat cells were placed in a 96 well plate (0.5 million cells per well in 1% FBS medium) then test compounds of this invention were added at different concentrations. After 10 minutes, the cells were activated with PHA (final concentration 2.5 μg/mL) and incubated for 20 hours at 37° C. under CO2. The final volume was 200 μL. Following incubation, the cells were centrifuged and the supernatants collected and stored at −70° C. prior to assaying for IL-2 production. A commercial ELISA kit (IL-2 Eli-pair, Diaclone Research, Besancon, France) was used to detect production of IL-2, from which dose response curves were obtained. The IC50 value was calculated as the concentration at which 50% of maximum IL-2 production after stimulation was inhibited versus a non-stimulation control.

TRPM4 = molecular target: T1, TRPM4 (Homo sapiens, UniProt Q8TD43); test: Activation of TRPM4 channel, whole-cell patch clamp in Jurkat cells and HEK-293 cells overexpressing TRPM4; type: cell-based; conditions: free intracellular calcium 300 nM
T1 construct: FLAG (N); expressed in transfected cells; host or cells: HEK 293 (tetracycline-induced FLAG-humanTRPM4/pCDNA4/TO); also Jurkat cells (endogenous TRPM4)
T1 sequence (Q8TD43 whole entry): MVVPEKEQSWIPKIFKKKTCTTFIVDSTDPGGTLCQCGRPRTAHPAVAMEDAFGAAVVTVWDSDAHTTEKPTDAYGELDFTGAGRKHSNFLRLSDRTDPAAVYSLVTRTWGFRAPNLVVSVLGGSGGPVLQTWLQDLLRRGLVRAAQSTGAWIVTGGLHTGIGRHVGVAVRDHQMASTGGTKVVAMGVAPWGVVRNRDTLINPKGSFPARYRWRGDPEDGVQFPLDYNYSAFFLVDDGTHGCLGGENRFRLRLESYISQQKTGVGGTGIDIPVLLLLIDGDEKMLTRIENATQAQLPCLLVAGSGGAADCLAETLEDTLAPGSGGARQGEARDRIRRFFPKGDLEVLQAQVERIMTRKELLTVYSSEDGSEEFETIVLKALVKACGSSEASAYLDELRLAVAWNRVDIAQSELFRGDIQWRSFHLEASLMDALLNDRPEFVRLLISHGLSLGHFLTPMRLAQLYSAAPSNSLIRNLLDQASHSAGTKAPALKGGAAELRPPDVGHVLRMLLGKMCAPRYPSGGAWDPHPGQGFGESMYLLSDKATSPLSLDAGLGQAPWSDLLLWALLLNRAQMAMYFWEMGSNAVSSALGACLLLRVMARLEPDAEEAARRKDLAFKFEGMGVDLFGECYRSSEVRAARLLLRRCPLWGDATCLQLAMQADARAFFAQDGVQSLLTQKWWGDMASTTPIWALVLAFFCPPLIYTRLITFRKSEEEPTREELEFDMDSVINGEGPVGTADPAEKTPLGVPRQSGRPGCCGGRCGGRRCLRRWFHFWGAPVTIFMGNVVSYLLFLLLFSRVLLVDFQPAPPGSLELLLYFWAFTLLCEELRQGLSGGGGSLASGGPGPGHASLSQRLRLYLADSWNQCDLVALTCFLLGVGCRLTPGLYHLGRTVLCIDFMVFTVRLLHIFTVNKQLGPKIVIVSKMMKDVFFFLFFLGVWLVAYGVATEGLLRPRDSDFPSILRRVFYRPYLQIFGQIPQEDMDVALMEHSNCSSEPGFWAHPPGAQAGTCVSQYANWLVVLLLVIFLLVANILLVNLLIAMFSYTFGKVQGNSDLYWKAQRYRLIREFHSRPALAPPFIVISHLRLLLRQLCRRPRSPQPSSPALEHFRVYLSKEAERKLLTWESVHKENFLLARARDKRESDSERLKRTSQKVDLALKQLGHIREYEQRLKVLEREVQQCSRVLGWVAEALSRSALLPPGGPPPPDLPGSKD
Procedure: Human leukemic T cells (Jurkat cells) and HEK 293 cells transfected with the FLAG-humanTRPM4/pCDNA4/TO construct were grown on glass coverslips with DMEM medium supplemented with 10% FBS, blasticidin (5 μg/mL) and zeocin ([…]). TRPM4 expression was induced one day before use by adding 1 μg/mL tetracycline to the culture medium and patch clamp experiments were performed 16-24 hours post-induction (for additional details see Launay et al. (2000)).
Patch clamp experiments were performed in the tight-seal whole-cell configuration at 21-25° C. High resolution current recordings were acquired by a computer-based patch clamp amplifier system (EPC-9, HEKA, Lambrecht, Germany). Patch pipettes had resistances between […] after filling with the standard intracellular solution. […] Capacitive currents and series resistance were determined and corrected before each voltage ramp using the automatic capacitance compensation of the EPC-9. The low resolution temporal development of membrane currents was assessed by extracting the current amplitude at −80 mV or +80 mV from individual ramp current records.
TRPM4 currents were measured in Jurkat cells and HEK-293 cells overexpressing TRPM4. […]

Row | IC50 (IL-2) [nM] | IC50 (IL-4) [nM] | IC50 (IL-5) [nM] | IC50 (IL-10) [nM] | IC50 (IL-13) [nM] | IC50 (GM-CSF) [nM] | IC50 (INF-γ) [nM] | IC50 (TNF-α) [nM] | IC50 (RBL cells) [nM] | IC50 (IL-2 production [4]) [nM] | SMILES | inhibition of Icrac in Jurkat cells [1] [%] | inhibition of ICRAC current in primary T cells compared with RBL cells (FIG. 1) [2] | IL-2 production after IV infusion (FIG. 3) (IL-2 production [3]) | TNF-α production after IV infusion (FIG. 4) (TNF-α production) | EC50 (TRPM4) [nM]
1 | – | – | – | – | – | – | – | – | – | < 100 | Cc1nnsc1C(=O)Nc1ccc(-c2cc(C(F)(F)F)ccc2C(F)(F)F)cc1 [Compound 24, 4-Methyl-[1,2,3]thiadiazole-5-carboxylic acid (2′,5′-bis-trifluoromethyl-biphenyl-4-yl)-amide] | – | – | – | – | 20 to 50
2 | – | – | – | – | – | – | – | – | – | < 100 | O=C(Nc1ccc(-c2cc(C(F)(F)F)ccc2Cl)cc1)c1cccc(F)c1F [Compound 23] | – | – | – | – | 20 to 50
3 | 4 | 103 | 7 | > 1000 | 15 | 152 | 23 | 81 | – | < 100 | CSc1ccccc1-c1ccc(NC(=O)c2ccncc2C)cc1 [Compound 75, 3-methyl-pyridine-4-carboxylic acid (2′-methylsulfanyl-biphenyl-4-yl)-amide] | – | – | – | – | –

The next lines start with the molecule.

Row | SMILES | IC50 (IL-2) [nM] | IC50 (IL-4) [nM] | IC50 (IL-5) [nM] | IC50 (IL-10) [nM] | IC50 (IL-13) [nM] | IC50 (GM-CSF) [nM] | IC50 (INF-γ) [nM] | IC50 (TNF-α) [nM] | IC50 (RBL cells) [nM] | IC50 (IL-2 production [4]) [nM] | inhibition of Icrac in Jurkat cells [1] [%] | inhibition of ICRAC current in primary T cells compared with RBL cells (FIG. 1) [2] | IL-2 production after IV infusion (FIG. 3) (IL-2 production [3]) | TNF-α production after IV infusion (FIG. 4) (TNF-α production) | EC50 (TRPM4) [nM]
4 | COc1ccc(OC)c(-c2ccc(NC(=O)c3cccc(F)c3F)cc2)c1 [Compound 31, N-(2′,5′-Dimethoxy-biphenyl-4-yl)-2,3-difluoro-benzamide] | 6 | 71 | 11 | > 1000 | 51 | 97 | 42 | 68 | 380 | – | > 43 | inhibits ICRAC current equally well in primary T cells as in RBL cells | significantly inhibit IL-2 production | significantly inhibit TNF-α production | –
5 | COc1ccc(OC)c(-c2ccc(NC(=O)c3ccncc3F)cc2)c1 [Compound 66, 3-fluoro-pyridine-4-carboxylic acid (2′,5′-dimethoxybiphenyl-4-yl)-amide] | 20 | 445 | 21 | > 1000 | 75 | 448 | 88 | 271 | 430 | < 100 | > 90 | – | – | – | –

From patent US20050148633A1 (priority 2003, published 2005)
